Results as given in ChEMBL document CHEMBL2390863, “Synthesis and evaluation of 4-substituted coumarins as novel acetylcholinesterase inhibitors” (Eur J Med Chem, 2013).

Experiments:
Cholinesterase = Cholinesterase (Equus caballus, UniProt P81908); test: Inhibition of equine serum BChE using butylthiocholine iodide as substrate preincubated for 10 mins prior to substrate addition by Ellman's method
Acetylcholinesterase = Acetylcholinesterase (Electrophorus electricus, UniProt O42275); test: Inhibition of electric eel AChE using acetylthiocholine iodide as substrate preincubated for 10 mins prior to substrate addition by Ellman's method
[1] = Antioxidant activity assessed as Fe2+ formation by FRAP assay; type: functional
[2] = Selectivity ratio of IC50 for equine serum BChE to IC50 for electric eel AChE

Cholinesterase, sequence (P81908 whole entry): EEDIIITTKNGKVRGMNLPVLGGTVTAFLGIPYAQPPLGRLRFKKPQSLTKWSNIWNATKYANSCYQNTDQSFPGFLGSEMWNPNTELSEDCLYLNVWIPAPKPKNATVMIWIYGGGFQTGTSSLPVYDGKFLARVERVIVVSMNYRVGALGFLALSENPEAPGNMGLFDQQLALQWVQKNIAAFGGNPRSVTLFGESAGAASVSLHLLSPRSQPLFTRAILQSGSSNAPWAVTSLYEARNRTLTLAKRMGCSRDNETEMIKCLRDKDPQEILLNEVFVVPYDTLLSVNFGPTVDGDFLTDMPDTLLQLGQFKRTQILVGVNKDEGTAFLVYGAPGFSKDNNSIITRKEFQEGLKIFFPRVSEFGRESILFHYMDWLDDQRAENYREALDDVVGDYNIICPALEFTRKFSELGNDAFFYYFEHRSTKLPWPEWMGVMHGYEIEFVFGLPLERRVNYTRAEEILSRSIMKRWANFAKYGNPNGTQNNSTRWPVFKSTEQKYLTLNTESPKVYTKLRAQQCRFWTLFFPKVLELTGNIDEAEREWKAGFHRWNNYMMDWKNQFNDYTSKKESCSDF
Acetylcholinesterase, sequence (O42275 whole entry): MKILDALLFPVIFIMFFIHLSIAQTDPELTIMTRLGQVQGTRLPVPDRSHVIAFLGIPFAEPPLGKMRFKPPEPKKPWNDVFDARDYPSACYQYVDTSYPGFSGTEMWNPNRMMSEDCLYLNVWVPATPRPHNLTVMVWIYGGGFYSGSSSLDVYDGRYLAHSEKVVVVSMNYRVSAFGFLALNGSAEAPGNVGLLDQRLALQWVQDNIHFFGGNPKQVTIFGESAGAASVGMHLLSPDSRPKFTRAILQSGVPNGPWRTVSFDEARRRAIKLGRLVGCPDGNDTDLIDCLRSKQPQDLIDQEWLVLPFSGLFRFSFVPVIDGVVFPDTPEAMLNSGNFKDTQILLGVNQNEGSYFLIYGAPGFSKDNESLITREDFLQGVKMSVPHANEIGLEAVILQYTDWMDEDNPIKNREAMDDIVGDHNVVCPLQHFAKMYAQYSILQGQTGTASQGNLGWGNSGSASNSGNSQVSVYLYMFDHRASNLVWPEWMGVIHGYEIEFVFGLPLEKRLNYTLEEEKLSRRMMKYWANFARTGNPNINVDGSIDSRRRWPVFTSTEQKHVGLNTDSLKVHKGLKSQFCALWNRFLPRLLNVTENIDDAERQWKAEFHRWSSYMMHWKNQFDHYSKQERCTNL

O=C(COc1cc(=O)oc2ccccc12)N1CCC(O)(c2ccc(Cl)cc2)CC1
IC50 (Cholinesterase): > 100 µM | IC50 (Acetylcholinesterase): > 100 µM

O=C(COc1cc(=O)oc2ccccc12)N1CCC(O)(c2ccc(Br)cc2)CC1
IC50 (Cholinesterase): > 100 µM | IC50 (Acetylcholinesterase): > 100 µM

O=C1O[C@H]([C@@H](O)CO)C(O)=C1O
Activity [1]: 2250 mmol/g

O=C(CCCOc1cc(=O)oc2ccccc12)N1CCN(c2ccccc2F)CC1
IC50 (Cholinesterase): > 100 µM | IC50 (Acetylcholinesterase): > 100 µM

O=C(CCCOc1cc(=O)oc2ccccc12)N1CCC(O)(c2ccc(Br)cc2)CC1
IC50 (Cholinesterase): > 100 µM | IC50 (Acetylcholinesterase): > 100 µM

O=C(CCCOc1cc(=O)oc2ccccc12)N1CCN(c2ccc(Cl)c(Cl)c2)CC1
IC50 (Cholinesterase): > 100 µM | IC50 (Acetylcholinesterase): > 100 µM

O=C(COc1cc(=O)oc2ccccc12)N1CCN(c2ccc(Cl)c(Cl)c2)CC1
Ratio IC50 [2]: 34 | IC50 (Cholinesterase): 89 µM | IC50 (Acetylcholinesterase): 2.3 µM

O=C(COc1cc(=O)oc2ccccc12)N1CCN(c2ccccc2F)CC1
IC50 (Cholinesterase): > 100 µM | IC50 (Acetylcholinesterase): 12.1 µM

O=C(CCCOc1cc(=O)oc2ccccc12)N1CCC(O)(c2ccc(Cl)cc2)CC1
IC50 (Cholinesterase): > 100 µM | IC50 (Acetylcholinesterase): > 100 µM

O=C(CCCOc1cc(=O)oc2ccccc12)NC1CCN(Cc2ccccc2)CC1
IC50 (Cholinesterase): 41 µM | IC50 (Acetylcholinesterase): 2.37 µM

O=C(CCCOc1cc(=O)oc2ccccc12)N1CCC(Cc2ccccc2)CC1
IC50 (Cholinesterase): 76 µM | IC50 (Acetylcholinesterase): 8 µM

O=C(COc1cc(=O)oc2ccccc12)N1CCN(c2ccccc2O)CC1
Activity [1]: 840 mmol/g | IC50 (Cholinesterase): > 100 µM | IC50 (Acetylcholinesterase): 21.2 µM

O=C(COc1cc(=O)oc2ccccc12)N1CCN(c2ccccc2)CC1
Ratio IC50 [2]: 34 | IC50 (Cholinesterase): > 100 µM | IC50 (Acetylcholinesterase): 2.9 µM

O=C(CCCOc1cc(=O)oc2ccccc12)N1CCN(c2ccccc2)CC1
IC50 (Cholinesterase): > 100 µM | IC50 (Acetylcholinesterase): > 100 µM

O=C(COc1cc(=O)oc2ccccc12)N1CCN(c2ccc(F)cc2)CC1
Ratio IC50 [2]: 34 | IC50 (Cholinesterase): 76 µM | IC50 (Acetylcholinesterase): 2.1 µM

O=C(COc1cc(=O)oc2ccccc12)NC1CCN(Cc2ccccc2)CC1
Ratio IC50 [2]: 37 | IC50 (Cholinesterase): 45 µM | IC50 (Acetylcholinesterase): 1.2 µM

COc1ccc(CCNC(=O)CCCOc2cc(=O)oc3ccccc23)cc1OC
IC50 (Cholinesterase): > 100 µM | IC50 (Acetylcholinesterase): > 100 µM

O=C(CCCOc1cc(=O)oc2ccccc12)N1CCN(c2ccc(F)cc2)CC1
IC50 (Cholinesterase): > 100 µM | IC50 (Acetylcholinesterase): > 100 µM

O=C(COc1cc(=O)oc2ccccc12)N1CCC(Cc2ccccc2)CC1
IC50 (Cholinesterase): 65 µM | IC50 (Acetylcholinesterase): 3.4 µM

O=C(CCCOc1cc(=O)oc2ccccc12)N1CCN(c2ccccc2O)CC1
Activity [1]: 770 mmol/g | IC50 (Cholinesterase): > 100 µM | IC50 (Acetylcholinesterase): > 100 µM
